From patent US20230220105A1, “TUMOR ACTIVATED T CELL ENGAGERS AND METHODS OF USE THEREOF” (Janux Therapeutics, Inc., priority 2019, published 2023) come the findings set out here.

The subject of experiment [1] is TCR-1 binding to MAGE-A3 pMHC. Kind of experiment: Inhibition of kinetic binding of TCR to its cognate pMHC (BLI). The settings on record: Table 3.
Protocol: First, biotinylated pMHC was captured on streptavidin biosensors. Sensors were quenched using excess biocytin and then baselined in buffer. Inhibitory peptide was titrated in a two fold dilution series starting from 100 uM and pre-incubated with a constant concentration of 50 nM TCR. Peptide and TCR mixtures were then associated onto the pMHC loaded biosensor. Zero concentration of inhibitory peptide or zero concentration of TCR were used as controls. Association and dissociation signals were monitored in real-time. The maximal association signal was normalized from 100% (0 uM inhibitory peptide control) to 0% (0 nM TCR control) and plotted versus log-scale inhibitory peptide concentration.
In experiment [2] the test system is MAGE-A3 TCR (TCR-1). Kind of experiment: Kinetic binding of TCR to peptides (Octet BLI). The settings on record: Table 3; Ala mutants of Peptide-5 and controls. The protocol:
BLI based kinetic binding of TCR to peptides was measured using a ForteBio Octet RED96 instrument. Biotinylated peptides were first directly captured on streptavidin biosensors. Sensors were quenched using excess biocytin and then baselined in buffer. A dilution series of TCR was made and associated onto the peptide loaded biosensor. Association and dissociation signals were monitored in real-time. Signals were fit to a 1:1 binding model in order to derive binding constants, kon and koff, as well as KD.
(In general: In BLI a coated tip is dipped into the sample, and binding shifts an interference pattern.)

Experiment [3] has as its target MAGE-A3 TCR (TCR-1). Kind of experiment: Equilibrium binding of TCR to peptides (ELISA). For orientation: An ELISA detects its analyte on a solid surface through an enzyme-linked reagent.
Protocol: Peptide binding was also examined in an ELISA format. Biotinylated peptides were captured on neutravidin coated plates. TCR was then prepared in a half-log dilution series starting from 10 uM and titrated onto the peptide captured plates. […] The concentration of TCR required to observe half maximal binding signal (EC50) was then calculated using Graphpad Prism.

Take `CC(C)[C@@H]1NC(=O)[C@H](CC(=O)O)NC(=O)[C@H](CCCCN)NC(=O)[C@@H](NC(=O)[C@H](CO)NC(=O)[C@H](C)NC(=O)CNC(=O)CN)CSSC[C@@H](C(=O)N[C@@H](Cc2c[nH]c3ccccc23)C(=O)N[C@H](C(=O)NCC(=O)NCC(=O)NCC(=O)NCC(=O)N[C@@H](CO)C(=O)NCCOCCOCCOCCOCCC(=O)N[C@@H](CCCCNC(=O)CCCC[C@@H]2SC[C@@H]3NC(=O)N[C@@H]32)C(N)=O)[C@@H](C)O)NC(=O)[C@H](Cc2ccccc2)NC(=O)[C@H](C)NC(=O)[C@H](CCC(=O)O)NC(=O)[C@H](CC(=O)O)NC(=O)[C@H](Cc2ccc(O)cc2)NC1=O` [Peptide-21]: the “Octet BLI Competes at 100 uM” value in experiment [1] is recorded as “Yes”. In the experiment on MAGE-A3 TCR (TCR-1) [2], the “Octet BLI Binds TCR” value is listed as “Yes”.
For `CC(C)[C@H](NC(=O)CNC(=O)CN)C(=O)N[C@@H](C)C(=O)N[C@H]1CSSC[C@@H](C(=O)N[C@@H](Cc2c[nH]c3ccccc23)C(=O)N[C@H](C(=O)NCC(=O)NCC(=O)NCC(=O)NCC(=O)N[C@@H](CO)C(=O)NCCOCCOCCOCCOCCC(=O)N[C@@H](CCCCNC(=O)CCCC[C@@H]2SC[C@@H]3NC(=O)N[C@@H]32)C(N)=O)[C@@H](C)O)NC(=O)[C@H](Cc2ccccc2)NC(=O)[C@H](C)NC(=O)[C@H](CCC(=O)O)NC(=O)[C@H](CC(=O)O)NC(=O)[C@H](Cc2ccc(O)cc2)NC(=O)[C@H](C(C)C)NC(=O)[C@H](CC(=O)O)NC(=O)[C@H](CCCCN)NC1=O` [Peptide-22], the “Octet BLI Binds TCR” value in the experiment with MAGE-A3 TCR (TCR-1) [2] was “No”.
In the case of `CC(C)[C@H](NC(=O)CNC(=O)CN)C(=O)N[C@@H](CO)C(=O)N[C@H]1CSSC[C@@H](C(=O)N[C@@H](Cc2c[nH]c3ccccc23)C(=O)N[C@H](C(=O)NCC(=O)NCC(=O)NCC(=O)NCC(=O)N[C@@H](CO)C(=O)NCCOCCOCCOCCOCCC(=O)N[C@@H](CCCCNC(=O)CCCC[C@@H]2SC[C@@H]3NC(=O)N[C@@H]32)C(N)=O)[C@@H](C)O)NC(=O)[C@H](Cc2ccccc2)NC(=O)[C@H](C)NC(=O)[C@H](CCC(=O)O)NC(=O)[C@H](CC(=O)O)NC(=O)[C@H](Cc2ccc(O)cc2)NC(=O)[C@H](C(C)C)NC(=O)[C@H](CC(=O)O)NC(=O)[C@H](C)NC1=O` [Peptide-24], the “Octet BLI Competes at 100 uM” value in experiment [1] is given as “Yes”. For the same compound, the “Octet BLI Binds TCR” value with MAGE-A3 TCR (TCR-1) [2] is on record as “Yes”.
For `CC(C)[C@H](NC(=O)CNC(=O)CN)C(=O)N[C@@H](CO)C(=O)N[C@H]1CSSC[C@@H](C(=O)N[C@@H](Cc2c[nH]c3ccccc23)C(=O)N[C@H](C(=O)NCC(=O)NCC(=O)NCC(=O)NCC(=O)N[C@@H](CO)C(=O)NCCOCCOCCOCCOCCC(=O)N[C@@H](CCCCNC(=O)CCCC[C@@H]2SC[C@@H]3NC(=O)N[C@@H]32)C(N)=O)[C@@H](C)O)NC(=O)[C@H](Cc2ccccc2)NC(=O)[C@H](C)NC(=O)[C@H](CCC(=O)O)NC(=O)[C@H](CC(=O)O)NC(=O)[C@H](Cc2ccc(O)cc2)NC(=O)[C@H](C(C)C)NC(=O)[C@H](C)NC(=O)[C@H](CCCCN)NC1=O` [Peptide-25], the “Octet BLI Binds TCR” value in the experiment with MAGE-A3 TCR (TCR-1) [2] was “Weak”.
With `CC(C)[C@H](NC(=O)CNC(=O)CN)C(=O)N[C@@H](CO)C(=O)N[C@H]1CSSC[C@@H](C(=O)N[C@@H](Cc2c[nH]c3ccccc23)C(=O)N[C@H](C(=O)NCC(=O)NCC(=O)NCC(=O)NCC(=O)N[C@@H](CO)C(=O)NCCOCCOCCOCCOCCC(=O)N[C@@H](CCCCNC(=O)CCCC[C@@H]2SC[C@@H]3NC(=O)N[C@@H]32)C(N)=O)[C@@H](C)O)NC(=O)[C@H](Cc2ccccc2)NC(=O)[C@H](C)NC(=O)[C@H](CCC(=O)O)NC(=O)[C@H](CC(=O)O)NC(=O)[C@H](Cc2ccc(O)cc2)NC(=O)[C@H](C)NC(=O)[C@H](CC(=O)O)NC(=O)[C@H](CCCCN)NC1=O` [Peptide-26], the “Octet BLI Binds TCR” value in the experiment with MAGE-A3 TCR (TCR-1) [2] is given as “No”.
A word on the EC50: it is the concentration giving half of the maximal effect. Lower therefore signals higher potency in that assay. `CC(C)[C@H](NC(=O)CNC(=O)CN)C(=O)N[C@@H](CO)C(=O)N[C@H]1CSSC[C@@H](C(=O)N[C@@H](Cc2c[nH]c3ccccc23)C(=O)N[C@H](C(=O)NCC(=O)NCC(=O)NCC(=O)NCC(=O)N[C@@H](CO)C(=O)NCCOCCOCCOCCOCCC(=O)N[C@@H](CCCCNC(=O)CCCC[C@@H]2SC[C@@H]3NC(=O)N[C@@H]32)C(N)=O)[C@@H](C)O)NC(=O)[C@H](Cc2ccccc2)NC(=O)[C@H](C)NC(=O)[C@H](CCC(=O)O)NC(=O)[C@H](CC(=O)O)NC(=O)[C@H](C)NC(=O)[C@H](C(C)C)NC(=O)[C@H](CC(=O)O)NC(=O)[C@H](CCCCN)NC1=O` [Peptide-27] gave an EC50 on MAGE-A3 TCR (TCR-1) [3] (Table 3) of over 10 µM. The “Octet BLI Binds TCR” value in the experiment with MAGE-A3 TCR (TCR-1) [2] is “No”.
Regarding `CC(C)[C@H](NC(=O)CNC(=O)CN)C(=O)N[C@@H](CO)C(=O)N[C@H]1CSSC[C@@H](C(=O)N[C@@H](Cc2c[nH]c3ccccc23)C(=O)N[C@H](C(=O)NCC(=O)NCC(=O)NCC(=O)NCC(=O)N[C@@H](CO)C(=O)NCCOCCOCCOCCOCCC(=O)N[C@@H](CCCCNC(=O)CCCC[C@@H]2SC[C@@H]3NC(=O)N[C@@H]32)C(N)=O)[C@@H](C)O)NC(=O)[C@H](Cc2ccccc2)NC(=O)[C@H](C)NC(=O)[C@H](CCC(=O)O)NC(=O)[C@H](C)NC(=O)[C@H](Cc2ccc(O)cc2)NC(=O)[C@H](C(C)C)NC(=O)[C@H](CC(=O)O)NC(=O)[C@H](CCCCN)NC1=O` [Peptide-28], the “Octet BLI Competes at 100 uM” value in experiment [1] is “Yes”. For the same compound, the “Octet BLI Binds TCR” value in the experiment on MAGE-A3 TCR (TCR-1) [2] is “Yes”.
For `CC(C)[C@H](NC(=O)CNC(=O)CN)C(=O)N[C@@H](CO)C(=O)N[C@H]1CSSC[C@@H](C(=O)N[C@@H](Cc2c[nH]c3ccccc23)C(=O)N[C@H](C(=O)NCC(=O)NCC(=O)NCC(=O)NCC(=O)N[C@@H](CO)C(=O)NCCOCCOCCOCCOCCC(=O)N[C@@H](CCCCNC(=O)CCCC[C@@H]2SC[C@@H]3NC(=O)N[C@@H]32)C(N)=O)[C@@H](C)O)NC(=O)[C@H](Cc2ccccc2)NC(=O)[C@H](C)NC(=O)[C@H](C)NC(=O)[C@H](CC(=O)O)NC(=O)[C@H](Cc2ccc(O)cc2)NC(=O)[C@H](C(C)C)NC(=O)[C@H](CC(=O)O)NC(=O)[C@H](CCCCN)NC1=O` [Peptide-29], the “Octet BLI Binds TCR” value with MAGE-A3 TCR (TCR-1) [2] is on record as “No”.
For `CC(C)[C@H](NC(=O)CNC(=O)CN)C(=O)N[C@@H](CO)C(=O)N[C@H]1CSSC[C@@H](C(=O)N[C@@H](Cc2c[nH]c3ccccc23)C(=O)N[C@H](C(=O)NCC(=O)NCC(=O)NCC(=O)NCC(=O)N[C@@H](CO)C(=O)NCCOCCOCCOCCOCCC(=O)N[C@@H](CCCCNC(=O)CCCC[C@@H]2SC[C@@H]3NC(=O)N[C@@H]32)C(N)=O)[C@@H](C)O)NC(=O)[C@H](C)NC(=O)[C@H](C)NC(=O)[C@H](CCC(=O)O)NC(=O)[C@H](CC(=O)O)NC(=O)[C@H](Cc2ccc(O)cc2)NC(=O)[C@H](C(C)C)NC(=O)[C@H](CC(=O)O)NC(=O)[C@H](CCCCN)NC1=O` [Peptide-30], the concentration giving a half-maximal response (EC50) at MAGE-A3 TCR (TCR-1) [3] (Table 3) was over 10 µM. The “Octet BLI Binds TCR” value in the experiment on MAGE-A3 TCR (TCR-1) [2] is recorded as “No”.
On MAGE-A3 TCR (TCR-1) [3] (Table 3), `CC(C)[C@H](NC(=O)CNC(=O)CN)C(=O)N[C@@H](CO)C(=O)N[C@@H](CS)C(=O)N[C@@H](CCCCN)C(=O)N[C@@H](CC(=O)O)C(=O)N[C@H](C(=O)N[C@@H](Cc1ccc(O)cc1)C(=O)N[C@@H](CC(=O)O)C(=O)N[C@@H](CCC(=O)O)C(=O)N[C@@H](C)C(=O)N[C@@H](Cc1ccccc1)C(=O)N[C@@H](C)C(=O)N[C@@H](Cc1c[nH]c2ccccc12)C(=O)N[C@H](C(=O)NCC(=O)NCC(=O)NCC(=O)NCC(=O)N[C@@H](CO)C(=O)NCCOCCOCCOCCOCCC(=O)N[C@@H](CCCCNC(=O)CCCC[C@@H]1SC[C@@H]2NC(=O)N[C@@H]21)C(N)=O)[C@@H](C)O)C(C)C` [Peptide-31] showed a concentration giving a half-maximal response (EC50) of over 10 µM. Further, the “Octet BLI Binds TCR” value in the experiment on MAGE-A3 TCR (TCR-1) [2] is listed as “Weak”.
As to `CC(C)[C@H](NC(=O)CNC(=O)CN)C(=O)N[C@@H](CO)C(=O)N[C@H]1CSSC[C@@H](C(=O)N[C@@H](C)C(=O)N[C@H](C(=O)NCC(=O)NCC(=O)NCC(=O)NCC(=O)N[C@@H](CO)C(=O)NCCOCCOCCOCCOCCC(=O)N[C@@H](CCCCNC(=O)CCCC[C@@H]2SC[C@@H]3NC(=O)N[C@@H]32)C(N)=O)[C@@H](C)O)NC(=O)[C@H](Cc2ccccc2)NC(=O)[C@H](C)NC(=O)[C@H](CCC(=O)O)NC(=O)[C@H](CC(=O)O)NC(=O)[C@H](Cc2ccc(O)cc2)NC(=O)[C@H](C(C)C)NC(=O)[C@H](CC(=O)O)NC(=O)[C@H](CCCCN)NC1=O` [Peptide-32], the “Octet BLI Competes at 100 uM” value in experiment [1] was “Yes”. In addition, the “Octet BLI Binds TCR” value in the experiment on MAGE-A3 TCR (TCR-1) [2] was “Yes”.
On to `CC(C)[C@H](NC(=O)CNC(=O)CN)C(=O)N[C@@H](CO)C(=O)N[C@H]1CSSC[C@@H](C(=O)N[C@@H](Cc2c[nH]c3ccccc23)C(=O)N[C@@H](C)C(=O)NCC(=O)NCC(=O)NCC(=O)NCC(=O)N[C@@H](CO)C(=O)NCCOCCOCCOCCOCCC(=O)N[C@@H](CCCCNC(=O)CCCC[C@@H]2SC[C@@H]3NC(=O)N[C@@H]32)C(N)=O)NC(=O)[C@H](Cc2ccccc2)NC(=O)[C@H](C)NC(=O)[C@H](CCC(=O)O)NC(=O)[C@H](CC(=O)O)NC(=O)[C@H](Cc2ccc(O)cc2)NC(=O)[C@H](C(C)C)NC(=O)[C@H](CC(=O)O)NC(=O)[C@H](CCCCN)NC1=O` [Peptide-33], for which, in experiment [1], the “Octet BLI Competes at 100 uM” value is listed as “Yes”. For the same compound, in the experiment with MAGE-A3 TCR (TCR-1) [2], the “Octet BLI Binds TCR” value was “Yes”.
In turn, “ESDPIVAQY [Peptide-35, Titin peptide, linear control absent MHC presentation, reference compound]” came in with an EC50 on MAGE-A3 TCR (TCR-1) [3] (Table 3) of over 10 µM. Also, in the experiment with MAGE-A3 TCR (TCR-1) [2], the “Octet BLI Binds TCR” value is “No”.
In turn, “EVDPIGHLY [Peptide-34, MAGE-A3 antigen peptide, linear control absent MHC presentation, reference compound]” displayed an EC50 on MAGE-A3 TCR (TCR-1) [3] (Table 3) of over 10 µM. The “binding to TCR-1, Ala scan and control peptides” value in the experiment on MAGE-A3 TCR (TCR-1) [3] (relative to Peptide-5) is listed as “lack of binding”. In the experiment with MAGE-A3 TCR (TCR-1) [2], the “Octet BLI Binds TCR” value was “No”.
Turning to GGNQCWEVYDQEFCSL [Peptide-9], on MAGE-A3 TCR (TCR-1) [3] (Table 2, TCR-1 titrated on captured peptide), the EC50 amounted to 0.05 µM.
